Results taken from article PMC11882969 (Nature Communications, 2025).
Several values for one entry are separate records, joined by “and”; a condition that tells them apart may be missing. Equal values may be shown once.

Assays:
Format in all cases: cell-based
[1] = biological target: panel of 320 non-olfactory GPCRs (Homo sapiens, UniProt P21554)
[2] = biological target: panel of 320 non-olfactory GPCRs (Homo sapiens, UniProt P28223)
[3] = biological target: panel of 320 non-olfactory GPCRs (Homo sapiens, UniProt P35414)
[4] = biological target: panel of 320 non-olfactory GPCRs (Homo sapiens, UniProt P33032)
[5] = biological target: panel of 320 non-olfactory GPCRs (Homo sapiens, UniProt P21452)
[6] = biological target: panel of 320 non-olfactory GPCRs (Homo sapiens, UniProt Q16602)
[7] = biological target: panel of 320 non-olfactory GPCRs (Homo sapiens, UniProt P48039)
[8] = biological target: panel of 320 non-olfactory GPCRs (Homo sapiens, UniProt Q86Y34)
[9] = biological target: panel of 320 non-olfactory GPCRs (Homo sapiens, UniProt P55085)
[10] = biological target: panel of 320 non-olfactory GPCRs (Homo sapiens, UniProt P37288)
[11] = biological target: panel of 320 non-olfactory GPCRs (Homo sapiens, UniProt Q6NV75)
[12] = biological target: panel of 320 non-olfactory GPCRs (Homo sapiens, UniProt P32745)
[13] = biological target: panel of 320 non-olfactory GPCRs (Homo sapiens, UniProt Q96RI8)
[14] = biological target: panel of 320 non-olfactory GPCRs (Homo sapiens, UniProt P30874)
[15] = biological target: panel of 320 non-olfactory GPCRs (Homo sapiens, UniProt O95800)
[16] = biological target: panel of 320 non-olfactory GPCRs (Homo sapiens, UniProt P41143)
[17] = biological target: panel of 320 non-olfactory GPCRs (Homo sapiens, UniProt P35346)
[18] = biological target: panel of 320 non-olfactory GPCRs (Homo sapiens, UniProt P41595)
[19] = biological target: panel of 320 non-olfactory GPCRs (Homo sapiens, UniProt Q9Y2T6)
[20] = biological target: panel of 320 non-olfactory GPCRs (Homo sapiens, UniProt P30518)
[21] = biological target: panel of 320 non-olfactory GPCRs (Homo sapiens, UniProt P21730)
[22] = biological target: panel of 320 non-olfactory GPCRs (Homo sapiens, UniProt Q9BPV8)
[23] = biological target: panel of 320 non-olfactory GPCRs (Homo sapiens, UniProt O15354)
[24] = biological target: panel of 320 non-olfactory GPCRs (Homo sapiens, UniProt P25116)
[25] = biological target: panel of 320 non-olfactory GPCRs (Homo sapiens, UniProt Q9NYM4)
[26] = biological target: panel of 320 non-olfactory GPCRs (Homo sapiens, UniProt P23945)
[27] = biological target: panel of 320 non-olfactory GPCRs (Homo sapiens, UniProt Q15077)
[28] = biological target: panel of 320 non-olfactory GPCRs (Homo sapiens, UniProt P25105)
[29] = biological target: panel of 320 non-olfactory GPCRs (Homo sapiens, UniProt Q8TDT2)
[30] = biological target: panel of 320 non-olfactory GPCRs (Homo sapiens, UniProt P25089)
[31] = biological target: panel of 320 non-olfactory GPCRs (Homo sapiens, UniProt Q9BXC1)
[32] = biological target: panel of 320 non-olfactory GPCRs (Homo sapiens, UniProt Q9Y5Y4)
[33] = biological target: panel of 320 non-olfactory GPCRs (Homo sapiens, UniProt Q8TDV2)
[34] = biological target: panel of 320 non-olfactory GPCRs (Homo sapiens, UniProt P41594)
[35] = biological target: panel of 320 non-olfactory GPCRs (Homo sapiens, UniProt Q15760)
[36] = biological target: panel of 320 non-olfactory GPCRs (Homo sapiens, UniProt P48145)
[37] = biological target: panel of 320 non-olfactory GPCRs (Homo sapiens, UniProt P43657)
Also: test concentration or dose not given here.

Chain of panel of 320 non-olfactory GPCRs (Homo sapiens, UniProt P48039) (P48039 whole entry): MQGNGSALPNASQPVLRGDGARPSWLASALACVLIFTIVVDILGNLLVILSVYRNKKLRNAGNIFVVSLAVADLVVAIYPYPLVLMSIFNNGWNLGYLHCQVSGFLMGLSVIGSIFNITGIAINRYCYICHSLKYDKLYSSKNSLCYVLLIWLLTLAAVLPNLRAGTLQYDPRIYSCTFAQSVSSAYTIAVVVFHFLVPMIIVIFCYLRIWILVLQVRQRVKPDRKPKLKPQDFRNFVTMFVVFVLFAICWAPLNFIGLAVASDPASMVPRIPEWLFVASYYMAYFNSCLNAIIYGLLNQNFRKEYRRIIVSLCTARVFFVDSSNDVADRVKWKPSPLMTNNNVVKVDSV
Chain of panel of 320 non-olfactory GPCRs (Homo sapiens, UniProt Q86Y34) (Q86Y34 21-549): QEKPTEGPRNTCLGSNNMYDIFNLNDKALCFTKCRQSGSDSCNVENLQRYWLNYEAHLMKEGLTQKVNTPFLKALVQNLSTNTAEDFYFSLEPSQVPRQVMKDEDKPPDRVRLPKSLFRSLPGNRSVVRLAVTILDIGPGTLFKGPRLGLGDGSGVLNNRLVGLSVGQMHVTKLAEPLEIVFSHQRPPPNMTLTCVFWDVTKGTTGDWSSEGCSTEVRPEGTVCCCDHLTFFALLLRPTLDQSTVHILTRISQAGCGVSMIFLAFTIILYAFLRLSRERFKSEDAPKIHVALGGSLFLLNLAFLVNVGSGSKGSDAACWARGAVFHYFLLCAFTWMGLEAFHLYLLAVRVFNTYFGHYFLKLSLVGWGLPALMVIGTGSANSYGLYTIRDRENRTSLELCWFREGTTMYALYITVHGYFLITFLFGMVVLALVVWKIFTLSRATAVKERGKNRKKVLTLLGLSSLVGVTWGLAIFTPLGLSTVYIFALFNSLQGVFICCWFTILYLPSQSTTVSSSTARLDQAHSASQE
Chain of panel of 320 non-olfactory GPCRs (Homo sapiens, UniProt P25089) (P25089 whole entry): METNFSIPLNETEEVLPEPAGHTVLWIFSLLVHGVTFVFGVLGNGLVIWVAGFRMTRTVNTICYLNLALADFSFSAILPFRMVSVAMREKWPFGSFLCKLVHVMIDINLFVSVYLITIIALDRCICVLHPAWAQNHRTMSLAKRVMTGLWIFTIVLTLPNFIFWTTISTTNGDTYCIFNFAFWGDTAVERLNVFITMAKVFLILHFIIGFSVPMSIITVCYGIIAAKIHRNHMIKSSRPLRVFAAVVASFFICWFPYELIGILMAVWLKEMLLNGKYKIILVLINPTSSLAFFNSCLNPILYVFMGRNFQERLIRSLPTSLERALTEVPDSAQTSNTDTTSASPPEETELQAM
Chain of panel of 320 non-olfactory GPCRs (Homo sapiens, UniProt P48145) (P48145 whole entry): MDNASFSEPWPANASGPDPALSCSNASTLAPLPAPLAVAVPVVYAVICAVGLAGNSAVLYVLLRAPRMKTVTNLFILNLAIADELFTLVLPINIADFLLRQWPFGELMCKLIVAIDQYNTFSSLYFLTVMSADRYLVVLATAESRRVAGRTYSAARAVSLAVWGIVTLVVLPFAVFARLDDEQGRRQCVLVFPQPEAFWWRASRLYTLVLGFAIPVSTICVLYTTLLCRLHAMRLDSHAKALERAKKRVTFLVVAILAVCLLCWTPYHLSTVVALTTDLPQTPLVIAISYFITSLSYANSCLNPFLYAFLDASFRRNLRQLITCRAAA
Chain of panel of 320 non-olfactory GPCRs (Homo sapiens, UniProt P30518) (P30518 whole entry): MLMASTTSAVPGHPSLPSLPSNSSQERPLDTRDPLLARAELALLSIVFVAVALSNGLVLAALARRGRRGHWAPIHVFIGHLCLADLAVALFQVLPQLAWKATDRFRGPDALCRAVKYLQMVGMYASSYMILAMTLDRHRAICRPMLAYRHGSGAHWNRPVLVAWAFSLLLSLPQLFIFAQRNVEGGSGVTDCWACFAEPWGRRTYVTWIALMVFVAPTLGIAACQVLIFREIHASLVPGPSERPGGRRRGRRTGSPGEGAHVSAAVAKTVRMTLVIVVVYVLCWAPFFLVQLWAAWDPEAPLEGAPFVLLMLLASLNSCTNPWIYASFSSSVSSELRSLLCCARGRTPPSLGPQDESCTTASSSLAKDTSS
Chain of panel of 320 non-olfactory GPCRs (Homo sapiens, UniProt P41143) (P41143 whole entry): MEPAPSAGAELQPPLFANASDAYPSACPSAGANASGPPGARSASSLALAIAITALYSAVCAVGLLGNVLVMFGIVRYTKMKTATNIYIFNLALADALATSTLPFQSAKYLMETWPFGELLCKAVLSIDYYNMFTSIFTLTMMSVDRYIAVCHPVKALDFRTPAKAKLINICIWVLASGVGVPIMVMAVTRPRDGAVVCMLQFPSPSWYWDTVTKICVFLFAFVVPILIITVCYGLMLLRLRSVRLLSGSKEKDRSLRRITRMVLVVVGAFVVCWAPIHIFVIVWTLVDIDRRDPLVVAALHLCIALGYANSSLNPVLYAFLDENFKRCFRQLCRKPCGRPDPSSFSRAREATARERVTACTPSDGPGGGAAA
Chain of panel of 320 non-olfactory GPCRs (Homo sapiens, UniProt P25116) (P25116 22-425): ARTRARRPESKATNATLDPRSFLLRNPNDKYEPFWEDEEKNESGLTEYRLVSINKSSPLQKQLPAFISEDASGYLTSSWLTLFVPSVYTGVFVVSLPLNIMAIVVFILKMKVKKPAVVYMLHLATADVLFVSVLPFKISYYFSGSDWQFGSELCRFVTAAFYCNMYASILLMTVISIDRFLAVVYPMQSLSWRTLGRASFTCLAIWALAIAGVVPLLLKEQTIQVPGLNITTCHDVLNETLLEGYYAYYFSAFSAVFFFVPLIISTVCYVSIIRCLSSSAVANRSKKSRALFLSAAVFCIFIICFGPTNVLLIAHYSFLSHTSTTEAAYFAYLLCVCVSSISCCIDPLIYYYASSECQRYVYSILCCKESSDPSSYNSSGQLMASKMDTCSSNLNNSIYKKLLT
Chain of panel of 320 non-olfactory GPCRs (Homo sapiens, UniProt Q9NYM4) (Q9NYM4 17-423): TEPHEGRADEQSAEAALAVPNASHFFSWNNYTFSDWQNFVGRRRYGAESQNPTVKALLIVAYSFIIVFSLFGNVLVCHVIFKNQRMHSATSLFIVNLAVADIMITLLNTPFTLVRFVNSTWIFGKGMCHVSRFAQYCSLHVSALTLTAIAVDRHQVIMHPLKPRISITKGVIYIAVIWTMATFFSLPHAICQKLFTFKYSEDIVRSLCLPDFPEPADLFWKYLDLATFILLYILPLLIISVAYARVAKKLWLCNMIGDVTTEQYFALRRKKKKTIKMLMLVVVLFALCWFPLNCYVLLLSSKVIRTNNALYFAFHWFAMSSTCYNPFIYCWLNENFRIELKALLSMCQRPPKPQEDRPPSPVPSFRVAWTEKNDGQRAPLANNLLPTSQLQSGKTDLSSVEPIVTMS
Chain of panel of 320 non-olfactory GPCRs (Homo sapiens, UniProt P35346) (P35346 whole entry): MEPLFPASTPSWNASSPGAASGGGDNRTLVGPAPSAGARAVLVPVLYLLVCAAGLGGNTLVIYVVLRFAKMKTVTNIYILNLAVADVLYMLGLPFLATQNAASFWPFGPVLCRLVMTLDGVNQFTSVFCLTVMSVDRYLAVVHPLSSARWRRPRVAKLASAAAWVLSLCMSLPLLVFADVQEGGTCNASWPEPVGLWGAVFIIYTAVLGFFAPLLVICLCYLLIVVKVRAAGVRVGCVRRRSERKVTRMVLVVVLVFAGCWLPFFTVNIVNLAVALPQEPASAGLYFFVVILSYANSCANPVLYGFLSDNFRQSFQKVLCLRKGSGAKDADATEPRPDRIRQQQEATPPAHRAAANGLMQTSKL
Chain of panel of 320 non-olfactory GPCRs (Homo sapiens, UniProt P30874) (P30874 whole entry): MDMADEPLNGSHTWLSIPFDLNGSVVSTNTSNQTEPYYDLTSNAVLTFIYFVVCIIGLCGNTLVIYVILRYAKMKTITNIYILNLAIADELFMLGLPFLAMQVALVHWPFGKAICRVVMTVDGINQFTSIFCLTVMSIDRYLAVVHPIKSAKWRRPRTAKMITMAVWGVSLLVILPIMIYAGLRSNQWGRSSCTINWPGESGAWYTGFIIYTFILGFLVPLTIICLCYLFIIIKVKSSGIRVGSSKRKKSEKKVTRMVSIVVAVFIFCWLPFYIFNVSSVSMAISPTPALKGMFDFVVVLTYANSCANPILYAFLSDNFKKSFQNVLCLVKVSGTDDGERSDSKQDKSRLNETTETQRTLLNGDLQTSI
Chain of panel of 320 non-olfactory GPCRs (Homo sapiens, UniProt P37288) (P37288 whole entry): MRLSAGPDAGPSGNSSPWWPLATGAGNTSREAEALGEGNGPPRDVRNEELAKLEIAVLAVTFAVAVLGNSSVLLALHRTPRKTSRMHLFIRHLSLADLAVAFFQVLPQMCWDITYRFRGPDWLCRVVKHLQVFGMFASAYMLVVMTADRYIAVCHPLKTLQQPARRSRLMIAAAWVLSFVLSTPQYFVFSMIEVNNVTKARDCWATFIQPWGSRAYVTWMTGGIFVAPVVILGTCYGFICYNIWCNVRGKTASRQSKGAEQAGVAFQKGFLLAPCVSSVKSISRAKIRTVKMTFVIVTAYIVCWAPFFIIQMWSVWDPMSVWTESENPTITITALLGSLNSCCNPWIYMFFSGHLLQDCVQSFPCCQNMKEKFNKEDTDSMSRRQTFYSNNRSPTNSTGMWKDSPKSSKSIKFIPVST
Chain of panel of 320 non-olfactory GPCRs (Homo sapiens, UniProt O95800) (O95800 whole entry): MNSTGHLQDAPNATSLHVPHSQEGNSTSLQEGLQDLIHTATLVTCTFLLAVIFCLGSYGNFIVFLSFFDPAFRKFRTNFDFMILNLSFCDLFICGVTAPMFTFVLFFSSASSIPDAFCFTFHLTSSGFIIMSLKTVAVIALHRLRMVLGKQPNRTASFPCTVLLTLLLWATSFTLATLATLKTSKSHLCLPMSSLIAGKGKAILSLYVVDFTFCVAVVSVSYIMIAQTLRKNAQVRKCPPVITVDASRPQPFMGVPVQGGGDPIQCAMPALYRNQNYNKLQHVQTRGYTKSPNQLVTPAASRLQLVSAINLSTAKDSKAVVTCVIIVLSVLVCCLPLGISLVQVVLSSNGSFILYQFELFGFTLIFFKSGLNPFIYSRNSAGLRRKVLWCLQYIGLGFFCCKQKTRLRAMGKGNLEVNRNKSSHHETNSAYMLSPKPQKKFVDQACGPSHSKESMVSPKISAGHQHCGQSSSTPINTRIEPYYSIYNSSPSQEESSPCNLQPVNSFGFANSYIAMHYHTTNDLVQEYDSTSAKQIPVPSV

`Cc1cc(C(=O)NC(C)(c2ccco2)c2ccco2)nn1-c1cccc(C(F)(F)F)c1` [‘4936] was tested, and the “Fold of Basal RLU” value [1] was 5.5 and 5.4 and 5.6, the “Fold of Basal RLU” value [2] was 1.2 fold and 1 fold and 1.4 fold and the “Fold of Basal RLU” value [3] was 1.1 fold and 1.4 fold and 1.2 fold. For the same molecule, the “Fold of Basal RLU” value [4] was 1.1 fold and 1.2 fold and 1.3 fold and 1 fold, the “Fold of Basal RLU” value [5] was 1.3 fold and 1.1 fold and 1.5 fold and the “Fold of Basal RLU” value [6] was 1 and 0.6 and 0.5. The “Fold of Basal RLU” value [7] was 2.7 fold and 3.1 fold and 3.2 fold, the “Fold of Basal RLU” value [8] was 2.2 and 2.3 and 1.6 and 3.1 and the “Fold of Basal RLU” value [9] was 0.9 and 1.3 and 1.1. The “Fold of Basal RLU” value [10] was 0.9 and 0.7 and 1.1 and 1, the “Fold of Basal RLU” value [11] was 1.7 fold and 1.2 fold and 1.4 fold and 2.1 fold and the “Fold of Basal RLU” value [12] was 1.3 and 0.7 and 1. For the same molecule, the “Fold of Basal RLU” value [13] was 0.8 fold and 1.3 fold and 0.7 fold, the “Fold of Basal RLU” value [14] was 0.7 and 1 and the “Fold of Basal RLU” value [15] was 1.7 fold and 1.4 fold and 1.6 fold. For the same molecule, the “Fold of Basal RLU” value [16] was 0.7 fold and 1.1 fold and 0.6 fold, the “Fold of Basal RLU” value [17] was 1 and 0.7 and 0.8 and the “Fold of Basal RLU” value [18] was 1.1 fold and 1.6 fold and 2 fold. For the same molecule, the “Fold of Basal RLU” value [19] was 1.1 fold and 1.7 fold and 1.4 fold, the “Fold of Basal RLU” value [20] was 0.9 fold and 1.3 fold and 1.6 fold and the “Fold of Basal RLU” value [21] was 0.8 fold and 0.7 fold. For the same molecule, the “Fold of Basal RLU” value [22] was 1.3 fold and 1.5 fold and 1.7 fold and 1.8 fold, the “Fold of Basal RLU” value [23] was 1 fold and 1.1 fold and 1.2 fold and the “Fold of Basal RLU” value [24] was 1.4 fold and 1.3 fold and 1.1 fold. The “Fold of Basal RLU” value [25] was 0.8 fold and 0.9 fold and 0.6 fold, the “Fold of Basal RLU” value [26] was 1 fold and 0.7 fold and 0.8 fold and 1.1 fold and the “Fold of Basal RLU” value [27] was 1.2 fold and 1.3 fold. For the same molecule, the “Fold of Basal RLU” value [28] was 1.1 fold and 1.5 fold and 1.8 fold, the “Fold of Basal RLU” value [29] was 1.1 fold and 0.9 fold and 1 fold and the “Fold of Basal RLU” value [30] was 1.2 fold and 1.3 fold and 1.8 fold. The “Fold of Basal RLU” value [31] was 1 and 1.1 and 1.3, the “Fold of Basal RLU” value [32] was 2.3 fold and 1.8 fold and 1.6 fold and 1.5 fold and the “Fold of Basal RLU” value [33] was 1 and 0.6 and 1.2. For the same molecule, the “Fold of Basal RLU” value [34] was 1.1 and 1.2 and 0.9 and 0.8, the “Fold of Basal RLU” value [35] was 0.8 fold and 1 fold and the “Fold of Basal RLU” value [36] was 0.6 and 1.1 and 0.7. The “Fold of Basal RLU” value [37] was 0.7 fold and 0.8 fold.

`COC(=O)[C@@](C)(NC(=O)c1cc(C)n(-c2cccc(C(F)(F)F)c2)n1)c1cccs1` [‘1350] was tested, and the “Fold of Basal RLU” value [1] was 5.2 and 4.9 and 5.3, the “Fold of Basal RLU” value [2] was 0.9 fold and 0.8 fold and the “Fold of Basal RLU” value [3] was 0.9 fold and 1.1 fold and 1.2 fold and 1 fold. The “Fold of Basal RLU” value [4] was 1.3 fold and 1 fold and 1.2 fold and 1.1 fold, the “Fold of Basal RLU” value [5] was 1 fold and 1.1 fold and 0.9 fold and the “Fold of Basal RLU” value [6] was 0.4 and 0.7 and 0.6. For the same molecule, the “Fold of Basal RLU” value [7] was 2.2 fold and 2.3 fold and 2.4 fold, the “Fold of Basal RLU” value [8] was 2.1 and 1.2 and 1.1 and the “Fold of Basal RLU” value [9] was 0.8 and 1.2. For the same molecule, the “Fold of Basal RLU” value [10] was 0.7 and 1 and 0.9, the “Fold of Basal RLU” value [11] was 0.8 fold and 0.7 fold and 1 fold and 0.9 fold and the “Fold of Basal RLU” value [12] was 0.8 and 0.9 and 0.7. For the same molecule, the “Fold of Basal RLU” value [13] was 0.9 fold and 1.2 fold and 1.1 fold and 0.8 fold, the “Fold of Basal RLU” value [14] was 0.7 and 0.8 and 0.6 and the “Fold of Basal RLU” value [15] was 1.1 fold and 1 fold and 1.2 fold and 2 fold. The “Fold of Basal RLU” value [16] was 1 fold and 0.9 fold and 0.8 fold, the “Fold of Basal RLU” value [17] was 0.4 and 0.7 and 0.6 and 0.5 and the “Fold of Basal RLU” value [18] was 0.8 fold and 0.7 fold and 1 fold. The “Fold of Basal RLU” value [19] was 1.4 fold and 1.3 fold and 1.5 fold, the “Fold of Basal RLU” value [20] was 1.1 fold and 0.9 fold and 1.2 fold and 1.3 fold and the “Fold of Basal RLU” value [21] was 1.1 fold and 0.9 fold and 1.2 fold and 1 fold. The “Fold of Basal RLU” value [22] was 1 fold and 1.1 fold and 1.4 fold and 1.6 fold, the “Fold of Basal RLU” value [23] was 1 fold and 0.8 fold and 0.9 fold and 1.3 fold and the “Fold of Basal RLU” value [24] was 1 fold and 1.1 fold and 1.3 fold. For the same molecule, the “Fold of Basal RLU” value [25] was 1.2 fold and 1 fold and 0.8 fold, the “Fold of Basal RLU” value [26] was 1 fold and 1.2 fold and 0.7 fold and 0.8 fold and the “Fold of Basal RLU” value [27] was 1.4 fold and 1.2 fold and 1.1 fold. For the same molecule, the “Fold of Basal RLU” value [28] was 1.3 fold and 0.9 fold and 1.7 fold, the “Fold of Basal RLU” value [29] was 1.2 fold and 1.1 fold and 0.8 fold and 1.5 fold and the “Fold of Basal RLU” value [30] was 1 fold and 1.1 fold. The “Fold of Basal RLU” value [31] was 0.9 and 1.3 and 1, the “Fold of Basal RLU” value [32] was 1.1 fold and 1.4 fold and 1.5 fold and the “Fold of Basal RLU” value [33] was 1.2 and 0.6 and 0.9. The “Fold of Basal RLU” value [34] was 0.8 and 0.6 and 0.7, the “Fold of Basal RLU” value [35] was 0.9 fold and 1.2 fold and 1 fold and the “Fold of Basal RLU” value [36] was 1.2 and 1.8 and 1.3 and 1.4. The “Fold of Basal RLU” value [37] was 0.9 fold and 1 fold and 1.1 fold and 0.7 fold.
